Laboratory results as given in patent publication US20220096454A1, “CARBOXYLIC ACID DERIVATIVES” (Merck Patent GmbH, priority 2018, published 2022).

Legend:
[1] = target: T1, TNKS2 (Homo sapiens, UniProt Q9H2K2); experiment: TNKS2 activity ELISA (autoparsylation assay); format: biochemical; conditions: GST-tagged Tnks-2 (873-1166 aa), 10 μM bio-NAD, 1 hour at 30° C.
T1 construct: GST-tagged Tnks-2 (873-1166 aa, prepared in-house); made in house
Protocol: (§1) Description of the TNKS1 and TNKS2 ELISA Assay
(§2) Biochemical activity testing of TNKS 1 and 2: activity ELISA (Autoparsylation assay)
(§3) For analysis of autoparsylation activity of TNKS 1 and 2 an activity ELISA is performed: In the first step GST tagged TNKS is captured on a Glutathione coated plate. Then the activity assay with biotinylated NAD is performed in the absence/presence of the compounds. During the enzymatic reaction GST tagged TNKS transfers biotinylated ADP-ribose to itself from biotinylated NAD as co-substrate. For the detection streptavidin-HRP conjugate is added that binds to the biotinylated TNKS and is thereby captured to the plates. The amount of biotinylated resp. autoparsylated TNKS is detected with a luminescence substrate for HRP. The level of the luminescence signal correlates directly with the amount of autoparsylated TNKS and therefore with activity of TNKS.
(§4) The activity ELISA is performed in 384 well Glutathione coated microtiter plates (Express capture Glutathione coated plate, Biocat, Heidelberg, Germany). The plates are pre-equilibrated with PBS. […] The plates are washed 3 times with PBS-Tween-20. The wells are blocked by incubation at room temperature for 20 minutes with 50 μl blocking buffer (PBS, 0.05% Tween-20, 0.5% BSA). Afterwards the plates are washed 3 times with PBS-Tween-20. […] The reaction is stopped by 3 times washing with PBS-Tween-20. For the detection 50 μl of 20 ng/μl Streptavidin, HRP conjugate (MoBiTec, Göttingen, Germany) in PBS/0.05% Tween-20/0.01% BSA are added and the plates are incubated for 30 minutes at room temperature. After three times washing with PBS-Tween-20 50 μl of SuperSignal ELISA Femto Maximum sensitivity substrate solution (ThermoFisherScientific (Pierce), Bonn, Germany) are added. Following a 1 minute incubation at room temperature luminescence signals are measured with an Envision multimode reader (Perkin Elmer LAS Germany GmbH) at 700 nm. The full value used is the inhibitor-free reaction. […] The inhibitory values (IC50) are determined using either the program Symyx Assay Explorer® or Condosseo® from GeneData.

[2] = system: Tankyrases; conditions: read-out: EC50 [M] TNKS cellular assay; increase of Axin2 level in colon carcinoma cell line DLD1, 24 hours
Protocol: Measurement of Cellular Inhibition of Tankyrase
Cells of the colon carcinoma cell line DLD1 are plated in 96 well plates with 1.5×10^4 cells per well. Next day, cells are treated with a serial dilution of test compound in seven steps as triplicates with a final DMSO concentration of 0.3%. […] The amount of isolated Axin2 protein is determined in a Luminex^200 machine (Luminex Corporation) according to the manufacturer's instruction by counting 100 events per well. […] As controls cells are treated with solvent alone (neutral control) and with a Tankyrase reference inhibitor IWR-2 (3E−06 M) which refers as control for maximum increase of Axin2. For analysis, the obtained data are normalized against the untreated solvent control and fitted for determination of the EC50 values using the Assay Explorer software (Accelrys).

[3] = target: T2, TNKS1 (Homo sapiens, UniProt O95271); experiment: TNKS1 activity ELISA (autoparsylation assay); format: biochemical; conditions: GST-tagged Tnks-1 (1023-1327 aa), 10 μM bio-NAD, 1 hour at 30° C.
T2 construct: GST-tagged Tnks-1 (1023-1327 aa, prepared in-house); made in house
T2 sequence (O95271 1023-1327): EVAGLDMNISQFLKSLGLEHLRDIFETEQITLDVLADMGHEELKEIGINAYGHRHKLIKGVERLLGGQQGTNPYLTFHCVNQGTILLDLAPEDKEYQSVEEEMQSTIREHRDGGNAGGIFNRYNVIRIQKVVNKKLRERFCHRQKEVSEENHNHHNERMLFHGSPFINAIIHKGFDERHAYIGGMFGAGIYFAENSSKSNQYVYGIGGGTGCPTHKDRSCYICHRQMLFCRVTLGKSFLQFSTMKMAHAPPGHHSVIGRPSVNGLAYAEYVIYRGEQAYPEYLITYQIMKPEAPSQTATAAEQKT
Protocol: as §1, §2, §3, §4

T1 sequence (Q9H2K2 873-1166): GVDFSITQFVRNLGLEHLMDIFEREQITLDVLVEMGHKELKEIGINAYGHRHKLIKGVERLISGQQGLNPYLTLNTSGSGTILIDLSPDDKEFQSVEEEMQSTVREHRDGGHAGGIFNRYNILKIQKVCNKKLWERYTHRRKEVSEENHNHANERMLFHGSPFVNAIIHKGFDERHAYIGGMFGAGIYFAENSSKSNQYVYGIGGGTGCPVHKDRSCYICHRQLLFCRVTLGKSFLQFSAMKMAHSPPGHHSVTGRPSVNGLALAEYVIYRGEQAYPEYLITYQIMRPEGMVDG

| Compound | IC50 [1] [nM] | EC50 [2] [M] | IC50 [3] [nM] |
| --- | --- | --- | --- |
| CCN(C(=O)N1CCC(C(=O)c2ccc3c(c2)c(C(=O)O)nn3C)CC1)c1ccc(OC)cc1 [Compound C16, 5-{1-[Ethyl-(4-methoxy-phenyl)-carbamoyl]-piperidine-4-carbonyl}-1-methyl-1H-indazole-3-carboxylic Acid] | 4.5 | 9.7e-07 | 9.7 |
| CCN(C(=O)N1CCC(C(=O)c2ccc3c(cnn3C)c2)CC1)c1cccc(C(=O)O)c1 [Compound C25, 3-{Ethyl-[4-(1-methyl-1H-indazole-5-carbonyl)-piperidine-1-carbonyl]-amino}-benzoic Acid] | 0.89 | 4.87e-08 | 1.8 |
| COc1ccc(N(C)C(=O)N2CCC(C(=O)c3ccc4c(c3)c(C(=O)O)nn4C)CC2)cc1 [Compound C15, 5-{1-[(4-Methoxy-phenyl)-methyl-carbamoyl]-piperidine-4-carbonyl}-1-methyl-1H-indazole-3-carboxylic Acid] | 19 | 7.1e-06 | 43 |
| CN(C(=O)N1CCC(C(=O)c2ccc3cnn(C)c3c2)CC1)c1cccc(C(=O)O)c1 [Compound C19, 3-{Methyl-[4-(1-methyl-1H-indazole-6-carbonyl)-piperidine-1-carbonyl]-amino}-benzoic Acid] | 1.4 | 1.4e-06 | 2.2 |
